Laboratory results: article PMC7726444 (Frontiers in Pharmacology, 2020)

Columns and labels:
CD-1 mice = assay: Tail suspension test; format: in vivo, mouse; conditions: 100 mg/kg i.p. once daily for 4 days, test 20 h after last dose, 6 min trial; p = 0.028, Mann-Whitney test
Excerpt: Male CD-1 mice (Janvier Labs, Le Genest-St-Isle, France), 3 months of age were used. The animals in the different treatment groups were matched for age. The University of Barcelona’s Committee on Animal Use and Care approved the protocol. Animals were housed and tested in compliance with the guidelines described in the Guide for the Care and Use of Laboratory Animals ([Clark et al., 1997]) and following the European Union directives (2010/63/EU), FELASA and ARRIVE guidelines. All efforts were made to minimize animal suffering and the number of animals used. All animals were housed in groups of five in standard cages with ad libitum access to food and water and maintained under a 12-h dark/light cycle (starting at 7:30 AM), 22°C temperature, and 66% humidity. […] While all treated animals were tested in the tail suspension test, brain tissue from eight of the vehicle-treated and nine of the omeprazole-treated mice was used for subsequent analysis of 5-HT content. Serum samples for 5-HT analysis were drawn from another nine vehicle-treated and eight omeprazole-treated mice.
Immobility time in the tail suspension test is known to be sensitive to manipulations that alter brain 5-HT content ([Garcia-Miralles et al., 2016]; [Palucha-Poniewiera et al., 2017]). […] Each animal was suspended for 6 min and the time spent immobile during suspension was counted using a stopwatch. […]

[1] = tested on: 5-HT content in brain and serum; assay: LC-MS/MS determination of 5-HT levels in brain and serum; format: in vivo, mouse; conditions: 100 mg/kg i.p. once daily for 4 days
Excerpt: Male CD-1 mice (Janvier Labs, Le Genest-St-Isle, France), 3 months of age were used. The animals in the different treatment groups were matched for age. The University of Barcelona’s Committee on Animal Use and Care approved the protocol. Animals were housed and tested in compliance with the guidelines described in the Guide for the Care and Use of Laboratory Animals ([Clark et al., 1997]) and following the European Union directives (2010/63/EU), FELASA and ARRIVE guidelines. All efforts were made to minimize animal suffering and the number of animals used. All animals were housed in groups of five in standard cages with ad libitum access to food and water and maintained under a 12-h dark/light cycle (starting at 7:30 AM), 22°C temperature, and 66% humidity. […]
Quantitative analysis of 5-HT was carried out by liquid chromatography coupled with tandem mass spectrometry (LC-MS/MS) using an Agilent 1,290 Infinity UHPLC chromatograph (Santa Clara, CA) coupled to a 6500 QTRAP mass spectrometer (ABSciex, Framingham, MA) equipped with an Ion Drive Turbo V ion source operating in positive ion mode. […] Sample-to-sample differences in recovery, liquid handling, and ionization efficiency were compensated for by normalizing to the amount of 5-HT-d4 detected in the samples. […]

COc1ccc2[nH]c([S+]([O-])Cc3ncc(C)c(OC)c3C)nc2c1 (stereo not drawn) [Omeprazole]
time spent immobile in tail suspension test vs vehicle (CD-1 mice): significantly less time immobile | 5-HT content in serum vs vehicle ([1]; serum): significantly higher 5-HT content | 5-HT content in brain vs vehicle ([1]; whole-brain tissue): significantly higher 5-HT content
